Consider 47 molecules from ChEMBL document CHEMBL1123279, “Beta 1-selective adrenoceptor antagonists: examples of the 2-[4-[3-(substituted amino)-2-hydroxypropoxy]phenyl]imidazole class. 2” (J Med Chem, 1986).

Active and inactive are the calls of the source. No cut-off for these calls is given here.

Data set [1] is described as follows: Partition coefficient (logD7.4). In kind it is physicochemical. The settings on record: octanol/water, pH 7.4.
Data set [2] can be described thus: Dissociation constant (pKa). In kind it is physicochemical.
Data set [3] relates to Rattus norvegicus. Briefly: Intrinsic sympathomimetic activity (ISA) measured as max. increase in heart rate over 60 min in reserpinized normotensive anesthetized rats at 1000 ug/kg iv. It counts as functional. The arrangement: unit not given here.
For data set [4], the system named is Rattus norvegicus. The experiment in a line: Effective dose was evaluated following intravenous administration in reserpinized normotensive anesthetized rats. It counts as functional.
In data set [5] the test system is Rattus norvegicus. Briefly: Intrinsic sympathomimetic activity (ISA) measured as max increase in heart rate over 60 min in the reserpinized normotensive anesthetized rats at 1000 ug/kg iv. In kind it is functional.
Data set [6] concerns the target Beta-2 adrenergic receptor (Cavia porcellus) (UniProt Q8K4Z4).
The target in data set [7] is Beta-1 adrenergic receptor (Cavia porcellus, UniProt B0FL73). The experiment in a line: In vitro inhibitory activity against beta-1 adrenergic receptor was measured by the inhibition of the positive chronotropic effect of isoproterenolin in isolated guinea pig atria. The following applies: read-out: pA2 (converted).
Beta-1 adrenergic receptor, sequence (B0FL73 whole entry): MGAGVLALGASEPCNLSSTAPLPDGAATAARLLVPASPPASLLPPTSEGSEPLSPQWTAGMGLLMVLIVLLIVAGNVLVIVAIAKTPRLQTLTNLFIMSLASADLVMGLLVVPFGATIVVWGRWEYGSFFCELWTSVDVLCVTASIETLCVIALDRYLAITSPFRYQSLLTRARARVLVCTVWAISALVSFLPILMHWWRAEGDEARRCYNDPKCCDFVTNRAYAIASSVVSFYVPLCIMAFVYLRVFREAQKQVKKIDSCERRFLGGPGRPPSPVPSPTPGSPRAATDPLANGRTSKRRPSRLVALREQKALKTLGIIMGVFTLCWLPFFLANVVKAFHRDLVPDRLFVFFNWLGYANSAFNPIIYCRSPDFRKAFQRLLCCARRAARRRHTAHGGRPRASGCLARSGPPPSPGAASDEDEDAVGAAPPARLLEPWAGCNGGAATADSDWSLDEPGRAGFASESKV
The test system of data set [8] is Rattus norvegicus. The experiment in a line: Intrinsic sympathomimetic activity (ISA) in the reserpinized normotensive anesthetized rats following intravenous administration at 1000 ug/kg. It counts as functional.

Beta-2 adrenergic receptor (Cavia porcellus), sequence (Q8K4Z4 whole entry, looked up): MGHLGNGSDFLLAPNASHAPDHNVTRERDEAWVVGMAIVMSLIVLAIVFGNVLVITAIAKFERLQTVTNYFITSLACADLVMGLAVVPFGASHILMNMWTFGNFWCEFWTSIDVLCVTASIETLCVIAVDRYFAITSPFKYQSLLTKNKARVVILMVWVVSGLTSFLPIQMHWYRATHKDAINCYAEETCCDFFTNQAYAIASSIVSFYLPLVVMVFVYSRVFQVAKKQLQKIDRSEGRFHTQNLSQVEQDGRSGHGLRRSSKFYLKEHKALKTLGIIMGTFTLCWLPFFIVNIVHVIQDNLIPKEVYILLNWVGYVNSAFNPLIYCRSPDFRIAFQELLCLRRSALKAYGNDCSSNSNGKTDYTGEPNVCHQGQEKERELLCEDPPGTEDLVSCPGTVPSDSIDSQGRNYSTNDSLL

On to `COc1ccc(CCNC[C@H](O)COc2ccc(Cc3nc(C(C)=O)c[nH]3)cc2)cc1OC`, for which the logD (as a rule, the decadic logarithm of the distribution of all forms, ionised or not, between an organic phase and buffer at a given pH) in data set [1] was 0.301. Moreover, the pKa (in general, the pH at which an ionisable group is half protonated) in data set [2] is 3.95. The molecule also returned a Max increase in data set [3] of 0.

Consider `COc1ccc(CCNCC(O)COc2ccc(OCc3ncc[nH]3)cc2)cc1OC` (stereo not drawn), for which the logD in data set [1] is 0.663. The pKa in data set [2] was determined as 5.2.

Regarding `COc1ccc(CCNC[C@H](O)COc2ccc(-c3nc(C(C)=O)c[nH]3)cc2)cc1OC`, the logD in data set [1] is 0.694. In data set [2], the pKa is 3.6. In addition, in data set [4], the ED50 (in general, the dose at which the effect has come halfway, by size or by number of responders) was 0.0074 mg/kg.

In the case of `COc1ccc(CCNCC(O)COc2ccc(-c3nc(C(C)(C)C)c[nH]3)cc2)cc1OC` (stereo not drawn), the logD in data set [1] is 2.09. The molecule also yielded a pKa in data set [2] of 6.2. Besides, the Max increase in data set [3] was 48.

`CCOCCNC[C@H](O)COc1ccc(-c2nc(-c3cccs3)c[nH]2)cc1` gave a logD in data set [1] of 1.86. This molecule came in with a pKa in data set [2] of 4.6. In data set [4], this molecule came in with an ED50 of 0.0784 mg/kg.

In data set [1], `OC(CNCCc1ccncc1)COc1ccc(-c2nc(-c3cccs3)c[nH]2)cc1` (stereo not drawn) showed a logD of 1.9. The same molecule returned a pKa in data set [2] of 3.8. In data set [4], this molecule had an ED50 of 0.0654 mg/kg.

Turning to `COc1ccc(CCNCC(O)COc2ccc(-c3nc(Br)c[nH]3)cc2)cc1OC` (stereo not drawn), in data set [1], the logD was 1.24. In data set [2], this molecule returned a pKa of 3.65. The same molecule displayed an ED50 in data set [4] of 0.0064 mg/kg.

In data set [1], `COc1ccc(CCNCC(O)COc2ccc(-c3nc(Br)c[nH]3)cc2Cl)cc1OC` (stereo not drawn) had a logD of 2.31. The same molecule registered a pKa in data set [2] of 3.3. The same molecule yielded a Max increase in data set [3] of 48.

`COc1ccc(CCNC[C@H](O)COc2ccc(-c3nc(C(C)(C)C)c[nH]3)cc2)cc1OC` gave a logD in data set [1] of 2.2. Further, the pKa in data set [2] was 6.42. For the same molecule, the Max increase in data set [5] came to 21.

`Cc1c[nH]c(Cc2ccc(OCC(O)CNC(C)(C)C)cc2)n1` (stereo not drawn) gave a logD in data set [1] of -0.638. In data set [2], this molecule displayed a pKa of 6.93.

As to `COc1ccc(CCNCC(O)COc2ccc(-c3nc(C(C)C)c[nH]3)cc2)cc1OC` (stereo not drawn), the logD in data set [1] was 1.79. This molecule also came in with a pKa in data set [2] of 6.78. Besides, the Max increase in data set [3] is 24.

As to `COc1ccc(CCNCC(O)COc2ccc(-c3nc(Cl)c[nH]3)cc2)cc1OC` (stereo not drawn), the logD in data set [1] was 1.61. The pKa in data set [2] is 3.48. For the same molecule, in data set [3], the Max increase amounted to 42.

In data set [1], `CC(C)NCC(O)COc1ccc(-c2ncc[nH]2)cc1` (stereo not drawn) had a logD of -0.569. Also, the pKa in data set [2] is 5.65. The molecule further registered a Max increase in data set [3] of 53.

With `COc1ccc(CCNCC(O)COc2ccc(-c3nc(C)c[nH]3)cc2OC)cc1OC` (stereo not drawn), the logD in data set [1] was 0.968. In data set [2], this molecule had a pKa of 6.35.

The molecule `COc1ccc(CCNCC(O)COc2ccc(-c3nccn3C)cc2)cc1OC.Cl.Cl` (stereo not drawn) showed a pH-dependent lipophilicity (logD) in data set [1] of 0.881. Besides, in data set [2], the pKa was 6.7. In data set [3], this molecule showed a Max increase of 47.

As for `COc1ccc(CCNCC(O)COc2ccc(-c3nc(-c4cccs4)c[nH]3)cc2)cc1OC` (stereo not drawn), it took a dose of 0.0479 mg/kg to reach the 50% effect level in data set [4] (ED50).

On to `O=C(NCCNCC(O)COc1ccc(-c2ncc[nH]2)cc1)Nc1ccccc1` (stereo not drawn), for which the logD in data set [1] is 0.778. In data set [2], this molecule showed a pKa of 5.75.

In data set [1], `COc1ccc(CCNCC(O)COc2ccc(Cc3nc(-c4cccs4)c[nH]3)cc2)cc1OC` (stereo not drawn) had a logD of 1.58. In addition, in data set [2], the pKa turned out to be 4.99. Besides, in data set [3], the Max increase worked out at 3.

Molecule `COc1ccc(CCNCC(O)COc2ccc(-c3nc(C)c[nH]3)cc2Br)cc1OC` (stereo not drawn) gave a logD in data set [1] of 1.6. For the same molecule, in data set [2], the pKa turned out to be 5.7.

The molecule `COCc1[nH]c(-c2ccc(OCC(O)CNCCc3ccc(OC)c(OC)c3)cc2)nc1C` (stereo not drawn) had a logD in data set [1] of 0.839. In addition, the pKa in data set [2] worked out at 4.92.

In the case of `CC(C)NCC(O)COc1ccc(-c2nc(C(C)C)c[nH]2)cc1` (stereo not drawn), in data set [1], the logD was 0.952. Further, in data set [2], the pKa is 6.32.

Turning to `CCCCNC(=O)NCCNCC(O)COc1ccc(-c2nc(C)c[nH]2)cc1` (stereo not drawn), the logD in data set [1] is 0.699. Moreover, the pKa in data set [2] is 3.6.

For `COc1ccc(CCNCC(O)COc2ccc(-c3nc(C(N)=O)c[nH]3)cc2)cc1OC` (stereo not drawn), the logD in data set [1] is 0.279. The molecule also showed a pKa in data set [2] of 3.6. The same molecule came in with a Max increase in data set [3] of 47.

Consider `COCc1c[nH]c(-c2ccc(OCC(O)CNCCc3ccc(OC)c(OC)c3)cc2)n1` (stereo not drawn), for which the logD in data set [1] was 0.799. In data set [2], this molecule had a pKa of 5.64. Moreover, in data set [3], the Max increase was 38. Moreover, in data set [6], the pA2 result was “Active”.

In turn, `CCOCCNCC(O)COc1ccc(-c2nc(-c3cccs3)c[nH]2)cc1` (stereo not drawn) showed a logD in data set [1] of 1.78. In data set [2], the pKa came out at 4.5.

Molecule `CCOCc1c[nH]c(-c2ccc(OCC(O)CNCCc3ccc(OC)c(OC)c3)cc2)n1` (stereo not drawn) showed a pH-dependent lipophilicity (logD) in data set [1] of 0.312. The same molecule came in with a pKa in data set [2] of 5.25. In data set [3], this molecule had a Max increase of 27.

Regarding `COCCc1c[nH]c(-c2ccc(OCC(O)CNCCc3ccc(OC)c(OC)c3)cc2)n1` (stereo not drawn), the logD in data set [1] was 1.32. In data set [2], this molecule showed a pKa of 5.9. Further, in data set [3], the Max increase was determined as 75.

Molecule `COc1ccc(CCNCC(O)COc2ccc(COCc3ncc[nH]3)cc2)cc1OC` (stereo not drawn) showed a logD in data set [1] of 0.633. The molecule also showed a pKa in data set [2] of 5.5. Besides, the Max increase in data set [3] is given as 2.

In data set [1], `COc1ccc(CCNCC(O)COc2ccc(-c3nccs3)cc2)cc1OC` (stereo not drawn) had a logD of 0.505. This molecule also registered a Max increase in data set [3] of 70.

`COc1ccc(CCNCC(O)COc2ccc(-c3nc(-c4cccs4)c[nH]3)cc2C)cc1OC` (stereo not drawn) had a logD in data set [1] of 2.76. In addition, the pKa in data set [2] was determined as 4.55. Besides, the Max increase in data set [3] came out at 21.

In the case of `CC(C)NCC(O)COc1ccc(Cc2nc(Br)c[nH]2)cc1` (stereo not drawn), the logD in data set [1] is 0.204. This molecule gave a pKa in data set [2] of 3.75. The Kb in data set [7] was 3.16 nM. In data set [3], this molecule displayed a Max increase of 7.

Take `COc1ccc(CCNCC(O)COc2ccc(-c3ncco3)cc2)cc1OC` (stereo not drawn): the logD in data set [1] is 1.6. For the same molecule, in data set [2], the pKa was determined as 8.4. In addition, the Max increase in data set [3] was found to be 19.

Turning to `CCOC(=O)c1c[nH]c(-c2ccc(OCC(O)CNCCc3ccc(OC)c(OC)c3)cc2)n1` (stereo not drawn), the logD in data set [1] is 1.41. The molecule further displayed a pKa in data set [2] of 3.8. This molecule showed a Max increase in data set [3] of 60.

Molecule `COc1ccc(CCNCC(O)COc2ccc(CCc3nc(Br)c[nH]3)cc2)cc1OC` (stereo not drawn) came in with a logD in data set [1] of 1. For the same molecule, the pKa in data set [2] is 3.65.

`COc1ccc(CCNCC(O)COc2ccc(CCc3nc(-c4cccs4)c[nH]3)cc2)cc1OC` (stereo not drawn) gave a logD in data set [1] of 1.53. In data set [2], this molecule gave a pKa of 5.45. The molecule further had a Max increase in data set [3] of 0.

Regarding `CCCNCC(O)COc1ccc(-c2nc(-c3cccs3)c[nH]2)cc1` (stereo not drawn), the log distribution coefficient (logD) in data set [1] is 1.41. This molecule returned a pKa in data set [2] of 4.79.

In data set [1], `COc1ccc(CCNCC(O)COc2ccc(-c3nc(C)c(Cl)[nH]3)cc2)cc1OC` (stereo not drawn) had a logD of 1.88. Further, the pKa in data set [2] was 3.62. This molecule showed a Max increase in data set [8] of 19.

As to `COc1ccc(CCNCC(O)COc2ccc(-c3nc(CO)c[nH]3)cc2)cc1OC` (stereo not drawn), the logD in data set [1] is 0. For the same molecule, the pKa in data set [2] stood at 5.55.

With `COc1ccc(CCNCC(O)COc2ccc(-c3nc(CN4CCOCC4)c[nH]3)cc2)cc1OC` (stereo not drawn), the logD in data set [1] is 0.215. Moreover, the pKa in data set [2] worked out at 3.54. Moreover, in data set [3], the Max increase is 30.

Turning to `CC(C)NCC(O)COc1ccc(-c2nc(-c3cccs3)c[nH]2)cc1` (stereo not drawn), the logD in data set [1] is 1.18. This molecule also gave a pKa in data set [2] of 4.9.

`COc1ccc(CCNCC(O)COc2ccc(-c3nc(Br)c(C)[nH]3)cc2)cc1OC` (stereo not drawn) gave a logD in data set [1] of 1.98. Besides, the pKa in data set [2] was found to be 5.8. Also, the Max increase in data set [8] amounted to 23.

With `COc1ccc(CCNCC(O)COc2ccc(-c3nc(C)c(C)[nH]3)cc2)cc1OC` (stereo not drawn), the logD in data set [1] was 1.02. This molecule registered a pKa in data set [2] of 6.72. This molecule also gave a Max increase in data set [3] of 19.

Molecule `N#Cc1ccccc1OCC(O)CNCCNC(=O)Nc1ccccc1.O` (stereo not drawn) yielded an ED50 in data set [4] of 0.0029 mg/kg.

Take `COc1ccc(CCNC[C@H](O)COc2ccc(-c3nc(-c4cccs4)c[nH]3)cc2)cc1OC.Cl.Cl`: the Max increase in data set [3] is listed as 19.

The molecule `COc1ccc(CCNCC(O)COc2ccc(-c3nc(C(C)=O)c(C)[nH]3)cc2)cc1OC` (stereo not drawn) showed a logD in data set [1] of 1.28. In data set [2], this molecule came in with a pKa of 4. In addition, the Max increase in data set [3] is listed as 24.

In turn, `COc1ccc(CCNCC(O)COc2ccc(Cc3nc(C)c[nH]3)cc2)cc1OC` (stereo not drawn) gave a logD in data set [1] of 0.301. In addition, the pKa in data set [2] was 7.01. In data set [3], this molecule gave a Max increase of 0.

`COc1ccc(CCNCC(O)COc2ccc(-c3nc(-c4cccs4)c[nH]3)cc2Cl)cc1OC` (stereo not drawn) gave a logD in data set [1] of 2.34. Further, in data set [2], the pKa is 4.02. Besides, in data set [3], the Max increase was found to be 19.
